Measured values as given in ChEMBL document CHEMBL1140180, “Antiproliferative triterpenes from Melaleuca ericifolia” (J Nat Prod, 2008).

test: Antiproliferative activity against mouse +SA mammary epithelial cells after 4 days by MTT assay; format: functional, cell-based; conditions: Epithelial cell, 96 h

Row | Structure (SMILES) | IC50 [µM]
1 | C[C@H]1CO[C@]23CC[C@@H]1[C@@H]2[C@H]1CC[C@@H]2[C@@]4(C)CC[C@H](O)C(C)(C)[C@@H]4CC[C@@]2(C)[C@]1(C)CC3 | 18.1
2 | C=C(C)[C@@H]1CC[C@]2(O)CC[C@]3(C)[C@H](CC[C@@H]4[C@@]5(C)CC[C@H](O)C(C)(C)[C@@H]5CC[C@]43C)[C@@H]12 | 18.7
3 | C=C(C)[C@@H]1CC[C@]2(OO)CC[C@]3(C)[C@H](CC[C@@H]4[C@@]5(C)CC[C@H](O)C(C)(C)[C@@H]5CC[C@]43C)[C@@H]12 | 15.5
4 | C=C(C)[C@@H]1CC[C@@]2(OO)CC[C@]3(C)[C@H](CC[C@@H]4[C@@]5(C)CC[C@H](O)C(C)(C)[C@@H]5CC[C@]43C)[C@@H]12 | > 20
5 | C[C@H]1[C@H](C)CC[C@]2(C(=O)O)CC[C@]3(C)C(=CC[C@@H]4[C@@]5(C)C[C@@H](O)[C@H](O)[C@@](C)(CO)[C@@H]5CC[C@]43C)[C@H]12 [ASIATIC ACID] | > 20
6 | C=C(C)[C@@H]1CC[C@]2(C=O)CC[C@]3(C)[C@H](CC[C@@H]4[C@@]5(C)CC[C@H](O)C(C)(C)[C@@H]5CC[C@]43C)[C@@H]12 [BETULINALDEHYDE] | 19.4
7 | C=C(C)[C@@H]1CC[C@]2(C(=O)O)CC[C@]3(C)[C@H](CC[C@@H]4[C@@]5(C)CC[C@H](O)C(C)(C)[C@@H]5CC[C@]43C)[C@@H]12 [BETULINIC ACID] | > 20
8 | C=C(C)[C@@H]1CC[C@]2(CO)CC[C@]3(C)[C@H](CC[C@@H]4[C@@]5(C)CC[C@H](O)C(C)(C)[C@@H]5CC[C@]43C)[C@@H]12 [BETULIN] | > 20
9 | CC(=O)[C@@H]1CC[C@]2(C(=O)O)CC[C@]3(C)[C@H](CC[C@@H]4[C@@]5(C)CC[C@H](O)C(C)(C)[C@@H]5CC[C@]43C)[C@@H]12 [PLATANIC ACID] | > 20
10 | C[C@H]1[C@H](C)CC[C@]2(C(=O)O)CC[C@]3(C)C(=CC[C@@H]4[C@@]5(C)CC[C@H](O)C(C)(C)[C@@H]5CC[C@]43C)[C@H]12 [URSOLIC ACID] | > 20
